These results are taken from US6759431B2, “Compositions and methods for treating or preventing diseases of body passageways” (Angiotech Pharmaceuticals, Inc., priority 1996, dated 2004).

The nature of data set [1]: Release from 50:50 ELVAX:poly-l-lactic acid microspheres, tumbling at 37° C. The format is physicochemical. Conditions: 18 hours tumbling at 37° C. The method, then: Five hundred micrograms of either paclitaxel or baccatin (a paclitaxel analog, available from Inflazyme Pharmaceuticals Inc., Vancouver, British Columbia, Canada) are dissolved in 1 ml of a 50:50 ELVAX:poly-1-lactic acid mixture in dcm. Microspheres are then prepared in a dissolution machine (Six-spindle dissolution tester, VanderKanp, Van Kell Industries Inc., U.S.A.) in triplicate at 200 rpm, 42° C., for 3 hours. Microspheres so prepared are washed twice in water and sized on the microscope.
Determination of paclitaxel encapsulation is undertaken in a uv/vis assay (uv/vis lambda max. at 237 nm, fluorescence assay at excitation 237, emission at 325 nm; Fluorescence results are presented in square brackets [ ]).

The next data set has as its system CAM. It is filed as in vivo, chick. The following applies: for drug loading that was toxic to the embryo: chick, in vivo. The method, then: Vinca alkaloids (vinblastine and vincristine) were ground with a pestle and mortar to reduce the particle size to below 5 microns. They were then mixed as a dry powder with polycaprolactone (molecular wt. 18000 Birmingham Polymers, AL USA). The mixture is heated to 65° C. for 5 minutes and the molten polymer/agent mixture is stirred into a smooth paste for 5 minutes. The molten paste is then taken into a 1 ml syringe and extruded to form 3 mg pellets. These pellets were then tested in the CAM assay.

Data set [2] relates to normal human bone marrow cells. In words: Radiometric (Bactec) cytotoxicity, marrow cells. It is filed as cell-based. The method, then:
Normal human bone marrow (histologically negative for tumor cells) was obtained from patients who were to have bone marrow transplants for their solid tumors but died before the marrow was used. After centrifugation, the buffy coat was removed and cells were treated with lysis buffer and washed twice with and then resuspended in RPMI 1640 with 20% HIFBS. The cells were drawn through a 25 g needle and counted.
(§1) The Bactec system (Johnston Laboratories, Towson, Md.) is based on a clinical instrument which was developed to detect bacteria in blood cultures and has been used to screen for new antineoplastic agents. This radiometric system is a rapid, semiautomated system which utilizes the inhibition of the conversion of ^14C glucose to […] as an index of cytotoxicity. The Bactec machine automatically flushes out the ^14CO2 into an ion chamber where the signal of the radiolabelled CO2 is changed into a proportional electrical signal or growth index value on a scale of 1 to 1000. […] The growth index values of BMOV treated cells were compared to the growth index values of non-treated cells and the % survival compared to untreated controls was calculated.

Data set [3] deals with HT-29 colon, MCF-7 breast and SKMES1 non-small cell lung human tumor cell lines. The data set is described as follows: Radiometric (Bactec) cytotoxicity, tumor cell lines. The format is cell-based. The following applies: continuous exposure. The method, then:
A. Human Tumor Cell Lines The HT-29 colon, MCF-7 breast and SKMES1 non-small cell lung human tumor cell lines were obtained from the American Type Culture Collection. The HT-29 colon cell line was cultured in RPMI 1640 with 10% heat inactivated fetal bovine serum (HIFBS), the MCF-7 breast cell line in Iscove's modified Eagles medium with 5% HIFBS plus 10^-9 M insulin, and the SKMES1 lung cell line in Eagle's minimal essential medium with 10% non-heat inactivated FBS.
as §1

Another data set has as its system MDAY-D2 tumor. The data set is described as follows: BMOV microspheres, tumor growth in mice. Conditions: s.c. It is filed as in vivo. The method, then: (§2) Twenty of twenty-four mice were injected subcutaneously with […] of MDAY-D2 cells with density of 10×10^6/ml. On day 6 the mice were divided into 6 groups. Group 1, empty control, group 2, tumor control, group 3, were injected subcutaneously with 0.25 mg/100 ul BMOV, twice a day. Group 4 was injected IP with 20 mg PLLA microspheres containing 5 mg of BMOV. Group 5 was injected IP with 10 mg of BMOV microspheres on day 6 and day 9 respectively. Group 6 was injected intramuscularly with 10 mg of BMOV microspheres on day 6 and day 9. On day 16, the mice were sacrificed and tumors were dissected.

Data set [4] in a line: Solubility of vanadium complexes in PBS/ALB. The format is physicochemical. The following applies: 10 mM PBS with albumin, pH 7.4. The method, then: Quantitative analysis (UV/VIS spectrophometric analysis) was done with different concentrations of vanadium solutions to obtain the wavelengths of peak absorbance and the calibration equations. Solubility of vanadium was studies in 10 mM phosphate buffered saline with albumin (PBS/ALB) (pH 7.4). 1%, 5%, 10%, and 20% (% vanadium complex in PCL) of each organic complex form of vanadium were encapsulated in a biodegradable polymer PCL and/or in blends of PLC with MePEG (MW 350) to produce a polymeric drug delivery product called a “thermopaste”. In vitro release studies of the various forms of vanadium from thermopastes were carried out at 37° C. in PBS/ALB with vanadium release measured by UV/VIS absorbance spectroscopy.

A short description of data set [5]: Body weights of mice, BMOV microsphere study. The format is in vivo. The following applies: 0.25 mg × 1, subcutaneous, in g (unit assumed). The method, then:
as §2

The nature of data set [6]: Complexation of paclitaxel with cyclodextrins (stability constants). It is filed as physicochemical. The following applies: for estimated stability constants for first order complexes of paclitaxel-cyclodextrins / stability constants for second order complexes of paclitaxel-cyclodextrins: water, 37° C. As for the experimental part:
Excess amounts of paclitaxel (5 mg) were added to aqueous solutions containing various concentrations of γ-CD, HPγ-CD, or HPβ-CD and tumbled gently for about 24 hours at 37° C. After equilibration, aliquots of the suspension were filtered through a 0.45 μm membrane filter (Millipore), suitably diluted and analyzed using HPLC. […] Aliquots were taken at various time intervals and assayed for paclitaxel.

Data set [7] is described as follows: Solubility of paclitaxel in cyclodextrin solutions. The following applies: 50% HPβCD in water, 37° C. It is filed as physicochemical.
Description: Excess amounts of paclitaxel (5 mg) were added to aqueous solutions containing various concentrations of γ-CD, HPγ-CD, or HPβ-CD and tumbled gently for about 24 hours at 37° C. After equilibration, aliquots of the suspension were filtered through a 0.45 μm membrane filter (Millipore), suitably diluted and analyzed using HPLC. The mobile phase was composed of a mixture of acetonitrile, methanol and water (58:5:37) at a flow rate of 1.0 ml min^−1.
The nature of data set [8]: Stability of paclitaxel in cyclodextrin solutions. The format is physicochemical. As for the experimental part:
The solutions containing 20% HPβCD or HPγCD had pH values of 3.9 and 5.2, respectively. The stability of paclitaxel in cyclodextrin solutions was investigated by assaying paclitaxel in solutions (20 μg ml^−1) containing 10 or 20% HPγ-CD or HPβ-CD in either water or a 50:50 water-ethanol mixture at 37° C. or 55° C. at various time intervals. In addition, stability of paclitaxel in solutions (1 μg/ml) containing 1%, 2% or 5% HPβCD at 55° C. were determined.

The mark [9] stands for this setting: fluorescence assay (square brackets).

Values joined by “and” are separate entries in the source; they are usually repeats but may differ in a detail not shown here. Equal entries are not always repeated. Where two headings read alike, the source gives them in different places.

Regarding baccatin, the “percent of total released from the microspheres” value is listed as 60% in [1] (setting [9]) and 55% in [1] (uv/vis assay).
Take `CC[C@]1(O)C[C@@H]2CN(CCc3c([nH]c4ccccc34)[C@@](C(=O)OC)(c3cc4c(cc3OC)N(C)[C@H]3[C@@](O)(C(=O)OC)[C@H](OC(C)=O)[C@]5(CC)C=CCN6CC[C@]43[C@@H]65)C2)C1` [Vinblastine, vinblastine]: the “angiogenesis inhibition on the CAM” value in the data set with CAM (0.25%, 0.5% and 1% in PCL pellets) is recorded as “effective in inhibiting angiogenesis”. The “drug loading that was toxic to the embryo” value in the data set with CAM was “exceeding 2%”.
Consider `Cc1occc(=O)c1[O-].Cc1occc(=O)c1[O-].[O]=[V+2]` [BMOV, Bis[maltolato(oxovanadium)] (IV)]], for which, in data set [2] (continuous exposure, 50 μM), the “survival compared to untreated controls” value amounted to 49%. For the same molecule, the effect on cells result in data set [2] (one hour exposure, up to 50 μM) was “very little effect”. Besides, in [3], the “antineoplastic effect in vitro” value was “antineoplastic effect of BMOV have been shown in vitro”. Further, the “Tumor weight, Average” value in the data set with MDAY-D2 tumor came out at 0.15. For the same molecule, the “Tumor weight, individual mice” value in the data set on MDAY-D2 tumor (listed as BMOV solution) is 0.04 and 0.4 and 0.12 and 0.07. Moreover, in [4], the “rate and extent of solubility, order” value was “V5>BMOV & BEMOV>PRC-V”. For the same molecule, the “Body weights, Average” value in [5] is recorded as 17.87. In data set [5] (listed as BMOV Solution), the “Body weights, individual mice” value is 18.4 and 17.3 and 18 and 17.8.
In the case of Hydroxypropyl-β-cyclodextrin [HPβCD], in data set [6] (50% ethanol), the “times lower than the stability constant in the absence of ethanol” value is “about 300 times”. Further, in data set [6] (in the presence of 50% ethanol), the “apparent stability constant for the complexation with paclitaxel” value came to 26.57 M⁻¹. In addition, in [6], the “estimated stability constants for first order complexes of paclitaxel-cyclodextrins” value (shortened to “estimated stability constants”) is 7.2 M⁻¹ and the “stability constants for second order complexes of paclitaxel-cyclodextrins” value was found to be 7965 M⁻¹.
Turning to `CC(=O)O[C@H]1C(=O)[C@@]2(C)[C@H]([C@H](OC(=O)c3ccccc3)[C@]3(O)C[C@H](OC(=O)[C@H](O)[C@@H](NC(=O)c4ccccc4)c4ccccc4)C(C)=C1C3(C)C)[C@]1(OC(C)=O)CO[C@@H]1C[C@@H]2O` [paclitaxel], the “percent of total released from the microspheres” value in data set [1] (setting [9]) was 6%; in data set [1] (uv/vis assay), 10.3%. Further, the “fold increase over the solubility of paclitaxel in water” value in data set [7] is roughly 2000 fold. Besides, the “degradation rate constant k (pseudo-first order)” value in [8] (1 μg/ml paclitaxel, 1% HPβCD, 55° C.) worked out at 0.00338 h⁻¹. The degradation rate constant in data set [8] (10% HPβCD (FIG. 47 legend: 20 μg ml^−1, 37° C.)) stood at 0.00178 h⁻¹; in [8] (10% HPγCD (FIG. 47 legend: 20 μg ml^−1, 37° C.)), 0.00096 h⁻¹.
For the molecule hydroxypropyl-γ-cyclodextrin [HPγCD], in data set [6], the “estimated stability constants” value is 5.8 M⁻¹ and the “stability constants for second order complexes of paclitaxel-cyclodextrins” value is 1886 M⁻¹.
Turning to `CC[C@]1(O)C[C@H]2CN(CCc3c([nH]c4ccccc34)[C@@](C(=O)OC)(c3cc4c(cc3OC)N(C=O)[C@H]3[C@@](O)(C(=O)OC)[C@H](OC(C)=O)[C@]5(CC)C=CCN6CC[C@]43[C@@H]65)C2)C1` [vincristine], the “angiogenesis inhibition on the CAM” value with CAM (0.5% and 0.1% drug loading in PCL pellets) was “all of the CAMs tested”. Also, in the data set with CAM, the “drug loading that was toxic to the embryo” value is reported as “exceeding 2%”.
Take `OC[C@H]1O[C@@H]2O[C@H]3[C@H](O)[C@@H](O)[C@@H](O[C@H]4[C@H](O)[C@@H](O)[C@@H](O[C@H]5[C@H](O)[C@@H](O)[C@@H](O[C@H]6[C@H](O)[C@@H](O)[C@@H](O[C@H]7[C@H](O)[C@@H](O)[C@@H](O[C@H]8[C@H](O)[C@@H](O)[C@@H](O[C@H]9[C@H](O)[C@@H](O)[C@@H](O[C@H]1[C@H](O)[C@H]2O)O[C@@H]9CO)O[C@@H]8CO)O[C@@H]7CO)O[C@@H]6CO)O[C@@H]5CO)O[C@@H]4CO)O[C@@H]3CO` [γ-CD, γ-cyclodextrin]: in data set [6], the “estimated stability constants” value was 3.1 M⁻¹ and the “stability constants for second order complexes of paclitaxel-cyclodextrins” value came out at 785 M⁻¹.
